From US10246429B2, “Vinyl fluoride cyclopropyl fused thiazin-2-amine compounds as beta-secretase inhibitors and methods of use” (AMGEN INC., priority 2015, dated 2019) come the findings set out here.

Test [1] addresses T1, BACE1 (Homo sapiens (Human), UniProt P56817). The experiment in a line: In vitro enzymatic BACE1 FRET assay. In kind it is biochemical. The settings on record: read-out: IC50 IP (μM) BACE1 Enzyme.
Target sequence in this assay (P56817 46-501): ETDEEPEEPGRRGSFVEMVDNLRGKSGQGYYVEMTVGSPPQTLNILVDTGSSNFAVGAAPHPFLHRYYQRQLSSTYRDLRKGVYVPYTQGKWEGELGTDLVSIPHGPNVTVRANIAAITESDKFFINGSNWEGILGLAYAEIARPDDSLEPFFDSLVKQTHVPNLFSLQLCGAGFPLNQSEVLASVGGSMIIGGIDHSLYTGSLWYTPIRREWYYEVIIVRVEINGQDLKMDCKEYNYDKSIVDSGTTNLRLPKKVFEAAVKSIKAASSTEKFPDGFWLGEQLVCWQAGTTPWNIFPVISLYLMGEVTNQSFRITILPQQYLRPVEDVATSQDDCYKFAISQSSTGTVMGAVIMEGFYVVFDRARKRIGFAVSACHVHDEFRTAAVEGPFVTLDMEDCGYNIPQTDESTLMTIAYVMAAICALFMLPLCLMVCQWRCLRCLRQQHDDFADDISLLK
Text: (§1) In Vitro Enzymatic BACE1 and BACE2 FRET (Fluorescence Resonance Energy Transfer) Assays (Enzyme Assay Data in Table 1)
The target in a further test is BACE2 (Homo sapiens (Human), UniProt Q9Y5Z0). The experiment in a line: In vitro enzymatic BACE2 FRET assay. In kind it is biochemical. The settings on record: read-out: IC50 IP (μM) BACE2 Enzyme.
Test [2] has as its target T1, BACE1. The experiment in a line: BACE1 cell assay. In kind it is cell-based.
Target sequence in this assay (P56817 46-501, species assumed): as the sequence (P56817 46-501) above
The target in a further test is Cathepsin D (CatD) (Homo sapiens (Human), UniProt P07339). The experiment in a line: CatD assay. The settings on record: read-out: IC50 IP (μM) CatD. In kind it is biochemical.
Where [3] appears, read: read-out: IC50 IP (μM) BACE1 Cell.

Structures are written as SMILES.

Chain of BACE2 (Q9Y5Z0 63-518): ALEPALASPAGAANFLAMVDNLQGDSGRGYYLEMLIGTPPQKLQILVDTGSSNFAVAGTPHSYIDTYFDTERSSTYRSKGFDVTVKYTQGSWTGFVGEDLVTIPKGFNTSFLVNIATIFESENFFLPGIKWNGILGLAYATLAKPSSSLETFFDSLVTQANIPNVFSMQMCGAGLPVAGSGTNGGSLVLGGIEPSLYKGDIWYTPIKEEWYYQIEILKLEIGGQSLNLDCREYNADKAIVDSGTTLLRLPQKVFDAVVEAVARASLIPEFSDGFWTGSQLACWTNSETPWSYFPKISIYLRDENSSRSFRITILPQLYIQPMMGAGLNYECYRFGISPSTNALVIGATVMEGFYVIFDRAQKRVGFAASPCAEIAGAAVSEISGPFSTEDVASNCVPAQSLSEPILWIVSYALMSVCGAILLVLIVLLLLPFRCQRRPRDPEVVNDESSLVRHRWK
Chain of Cathepsin D (CatD) (P07339 65-412, species assumed): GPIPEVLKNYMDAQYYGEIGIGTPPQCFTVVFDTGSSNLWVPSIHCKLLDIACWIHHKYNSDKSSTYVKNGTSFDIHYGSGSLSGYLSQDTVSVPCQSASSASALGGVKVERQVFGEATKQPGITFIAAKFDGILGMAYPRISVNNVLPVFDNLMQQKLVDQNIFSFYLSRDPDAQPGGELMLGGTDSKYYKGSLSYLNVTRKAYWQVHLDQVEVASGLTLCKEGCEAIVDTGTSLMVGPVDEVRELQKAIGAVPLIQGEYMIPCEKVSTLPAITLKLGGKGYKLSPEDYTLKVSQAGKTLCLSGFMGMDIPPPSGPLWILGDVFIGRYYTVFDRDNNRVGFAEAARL
Text for BACE2: as §1

As a reminder, the IC50 is the point on the concentration scale where inhibition reaches its midpoint. For the molecule `C[C@]1(c2cc(/C=C(\F)c3ccc(C#N)cn3)ccc2F)N=C(N)S[C@@]2(C(=O)N3CCO[C@@H]4C[C@@H]43)C[C@H]21` (single isomer, unassigned) [Example 312], the IC50 turned out to be 0.0012 µM at BACE1 [1], 0.068 µM on BACE2 and 0.0008 µM on BACE1 [2] (setting [3]).

For the molecule `C[C@]1(c2cc(/C=C(\F)c3ccc(C#N)cn3)ccc2F)N=C(N)S[C@@]2(C(=O)N3CC[C@H](O)C3)C[C@H]21` [Example 125, 6-((Z)-2-(3-((1S,5S,6S)-3-amino-1-((S)-3-hydroxypyrrolidine-1-carbonyl)-5-methyl-2-thia-4-azabicyclo[4.1.0]hept-3-en-5-yl)-4-fluorophenyl)-1-fluorovinyl)nicotinonitrile], the IC50 on BACE1 [1] is 0.000592 µM; at BACE2, 0.0364 µM; at BACE1 [2] (setting [3]) it was 0.000986 µM.

For `COC(=O)[C@]12C[C@H]1[C@@](C)(c1cc(/C=C(\F)c3cnc(Cl)cn3)ccc1F)N=C(N)S2` [Example 149, (1S,5S,6S)-methyl 3-amino-5-(5-((Z)-2-(5-chloropyrazin-2-yl)-2-fluorovinyl)-2-fluorophenyl)-5-methyl-2-thia-4-azabicyclo[4.1.0]hept-3-ene-1-carboxylate], the IC50 on BACE1 [1] was determined as 0.0352 µM; on BACE2, 0.206 µM; at BACE1 [2] (setting [3]), 0.883 µM.

For `COC(=O)[C@]12C[C@H]1[C@@](C)(c1cc(/C=C(\F)c3cnc(OCc4ncco4)cn3)ccc1F)N=C(N)S2` [Example 150, (1S,5S,6S)-methyl 3-amino-5-(2-fluoro-5-((Z)-2-fluoro-2-(5-(oxazol-2-ylmethoxy)pyrazin-2-yl)vinyl)phenyl)-5-methyl-2-thia-4-azabicyclo[4.1.0]hept-3-ene-1-carboxylate], the results for the IC50 on BACE1 [1], at BACE2 and at BACE1 [2] (setting [3]) were 0.0535 µM, 2.42 µM and 0.379 µM, respectively.

Turning to `Cc1cc(C#N)cnc1/C(F)=C/c1ccc(F)c([C@@]2(C)N=C(N)S[C@@]3(C(=O)N4CCOCC4)C[C@H]32)c1` [Example 160, 6-((Z)-2-(3-((1S,5S,6S)-3-amino-5-methyl-1-(morpholine-4-carbonyl)-2-thia-4-azabicyclo[4.1.0]hept-3-en-5-yl)-4-fluorophenyl)-1-fluorovinyl)-5-methylnicotinonitrile], the results for the half-inhibitory concentration (IC50) at BACE1 [1], at BACE2 and at BACE1 [2] were 0.00734 µM, 0.0891 µM and 0.0149 µM, respectively.

Consider `COc1ncc(/C=C(\F)c2ccc(C#N)cn2)cc1[C@@]1(C)N=C(N)S[C@@]2(C(=O)N3CC[C@@H](F)C3)C[C@H]21` [Example 184, 6-((Z)-2-(5-((1S,5S,6S)-3-amino-1-((R)-3-fluoropyrrolidine-1-carbonyl)-5-methyl-2-thia-4-azabicyclo[4.1.0]hept-3-en-5-yl)-6-methoxypyridin-3-yl)-1-fluorovinyl)nicotinonitrile], for which the IC50 was found to be 125 µM at Cathepsin D (CatD), 0.34 µM on BACE2 and 0.014 µM on BACE1 [2] (setting [3]).

In the case of `C[C@]1(c2cc(/C=C(\F)c3cnc(C#N)cn3)ccc2F)N=C(N)S[C@@]2(C(=O)N3CCOCC3)C[C@H]21` [Example 200, 5-((Z)-2-(3-((1S,5S,6S)-3-amino-5-methyl-1-(morpholine-4-carbonyl)-2-thia-4-azabicyclo[4.1.0]hept-3-en-5-yl)-4-fluorophenyl)-1-fluorovinyl)pyrazine-2-carbonitrile], the half-inhibitory concentration (IC50) on BACE1 [1] is 0.001 µM; against BACE1 [2], 0.004 µM.

Consider `C[C@]1(c2cc(/C=C(\F)c3cnc(C#N)cn3)ccc2F)N=C(N)S[C@@]2(C(=O)N3CC[C@H](F)C3)C[C@H]21` [Example 202, 5-((Z)-2-(3-((1S,5S,6S)-3-amino-1-((S)-3-fluoropyrrolidine-1-carbonyl)-5-methyl-2-thia-4-azabicyclo[4.1.0]hept-3-en-5-yl)-4-fluorophenyl)-1-fluorovinyl)pyrazine-2-carbonitrile], for which the concentration for half-maximal inhibition (IC50) on BACE1 [1] worked out at 0.001 µM; at BACE2, 0.04 µM; on BACE1 [2] (setting [3]), 0.001 µM.

On to `C[C@]1(c2cc(/C=C(\F)c3cnc(C#N)cn3)ccc2F)N=C(N)S[C@@]2(C(=O)N3CC[C@@H](F)C3)C[C@H]21` [Example 203, 5-((Z)-2-(3-((1S,5S,6S)-3-amino-1-((R)-3-fluoropyrrolidine-1-carbonyl)-5-methyl-2-thia-4-azabicyclo[4.1.0]hept-3-en-5-yl)-4-fluorophenyl)-1-fluorovinyl)pyrazine-2-carbonitrile], for which the IC50 is 0.001 µM at BACE1 [1], 0.045 µM at BACE2 and 0.001 µM at BACE1 [2] (setting [3]).

For `C[C@]1(c2cc(/C=C(\F)c3cnc(C#N)cn3)ccc2F)N=C(N)S[C@@]2(C(=O)N3CCCC3)C[C@H]21` [Example 204, 5-((Z)-2-(3-((1S,5S,6S)-3-amino-5-methyl-1-(pyrrolidine-1-carbonyl)-2-thia-4-azabicyclo[4.1.0]hept-3-en-5-yl)-4-fluorophenyl)-1-fluorovinyl)pyrazine-2-carbonitrile], the 50% inhibitory concentration (IC50) at BACE1 [1] was found to be 0.001 µM; at BACE2 it was 0.048 µM; against BACE1 [2] it was 0.003 µM.

With `C#C[C@H](C)Oc1cnc(/C(F)=C/c2ccc(F)c([C@@]3(C)N=C(N)S[C@@]4(C(C)=O)C[C@H]43)c2)cn1` [Example 237, 1-((1S,5S,6S)-3-amino-5-(5-((Z)-2-(5-((S)-but-3-yn-2-yloxy)pyrazin-2-yl)-2-fluorovinyl)-2-fluorophenyl)-5-methyl-2-thia-4-azabicyclo[4.1.0]hept-3-en-1-yl)ethanone], the IC50 worked out at 0.0032 µM on BACE1 [1], 0.438 µM at BACE2 and 0.0339 µM at BACE1 [2] (setting [3]).

As to `CNC(=O)[C@]12C[C@H]1[C@@](C)(c1cc(/C=C(\F)c3cc4c(cn3)OCCO4)ccc1F)N=C(N)S2` [Example 249, (1S,5S,6S)-3-amino-5-(5-((Z)-2-(2,3-dihydro-[1,4]dioxino[2,3-c]pyridin-7-yl)-2-fluorovinyl)-2-fluorophenyl)-N,5-dimethyl-2-thia-4-azabicyclo[4.1.0]hept-3-ene-1-carboxamide], the IC50 against BACE1 [2] was found to be 0.336 µM.

`C[C@]1(c2cc(/C=C(\F)c3cnc(C#N)cn3)ccc2F)N=C(N)S[C@]2(CO)[C@H]1C2(F)F` [Example 254, 5-((Z)-2-(3-((1S,5S,6R)-3-amino-7,7-difluoro-1-(hydroxymethyl)-5-methyl-2-thia-4-azabicyclo[4.1.0]hept-3-en-5-yl)-4-fluorophenyl)-1-fluorovinyl)pyrazine-2-carbonitrile trifluoromethyl acetate]: at BACE1 [2] (setting [3]), the IC50 amounted to 0.0894 µM.

In the case of `CC(=O)COc1cnc(/C(F)=C/c2cnc(F)c([C@@]3(C)N=C(N)S[C@@]4(C(=O)N(C)C)C[C@H]43)c2)cn1` [Example 288, (1S,5S,6S)-3-amino-5-(2-fluoro-5-((Z)-2-fluoro-2-(5-(2-oxopropoxy)pyrazin-2-yl)vinyl)pyridin-3-yl)-N,N,5-trimethyl-2-thia-4-azabicyclo[4.1.0]hept-3-ene-1-carboxamide], the IC50 amounted to 175 µM at Cathepsin D (CatD) and 0.294 µM on BACE2.

On to `C[C@@H]1COCCN1C(=O)[C@]12C[C@H]1[C@@](C)(c1cc(/C=C(\F)c3ccc(C#N)cn3)cnc1F)N=C(N)S2` [Example 290, 6-((Z)-2-(5-((1S,5S,6S)-3-amino-5-methyl-1-((R)-3-methylmorpholine-4-carbonyl)-2-thia-4-azabicyclo[4.1.0]hept-3-en-5-yl)-6-fluoropyridin-3-yl)-1-fluorovinyl)nicotinonitrile], for which the 50% inhibitory concentration (IC50) stood at 400 µM at Cathepsin D (CatD) and 0.229 µM on BACE2.

On to `COC[C@]12C[C@H]1[C@@](C)(c1cc(/C=C(\F)c3ccc(C#N)cn3)ccc1F)N=C(N)S2` [Example 293, 6-((Z)-2-(3-((1S,5S,6S)-3-amino-1-(methoxymethyl)-5-methyl-2-thia-4-azabicyclo[4.1.0]hept-3-en-5-yl)-4-fluorophenyl)-1-fluorovinyl)nicotinonitrile], for which the IC50 amounted to 400 µM on Cathepsin D (CatD), 0.0165 µM on BACE1 [1] and 0.192 µM at BACE2.

`C[C@]1(c2cc(/C=C(\F)c3ccc(C#N)cn3)cnc2F)N=C(N)S[C@@]2(C(=O)N3[C@H]4COC[C@@H]3COC4)C[C@H]21` [Example 298, 6-((Z)-2-(5-((1S,5S,6S)-3-amino-1-((1R,5R)-3,7-dioxa-9-azabicyclo[3.3.1]nonane-9-carbonyl)-5-methyl-2-thia-4-azabicyclo[4.1.0]hept-3-en-5-yl)-6-fluoropyridin-3-yl)-1-fluorovinyl)nicotinonitrile] displayed a 50% inhibitory concentration (IC50) on BACE1 [2] of 0.0173 µM.

Regarding `C[C@]1(O)CCN(C(=O)[C@]23C[C@H]2[C@@](C)(c2cc(/C=C(\F)c4ccc(C#N)cn4)ccc2F)N=C(N)S3)C1` [Example 309, 6-((Z)-2-(3-((1S,5S,6S)-3-amino-1-((S)-3-hydroxy-3-methylpyrrolidine-1-carbonyl)-5-methyl-2-thia-4-azabicyclo[4.1.0]hept-3-en-5-yl)-4-fluorophenyl)-1-fluorovinyl)nicotinonitrile], the IC50 on Cathepsin D (CatD) was found to be 401 µM; on BACE2 it was 0.007 µM.

With `C[C@]1(c2cc(/C=C(\F)c3cnc(N4CCC4)cn3)ccc2F)N=C(N)S[C@@]2(C(=O)N3CCOCC3)C[C@H]21` [Example 351, ((1S,5S,6S)-3-amino-5-(5-((Z)-2-(5-(azetidin-1-yl)pyrazin-2-yl)-2-fluorovinyl)-2-fluorophenyl)-5-methyl-2-thia-4-azabicyclo[4.1.0]hept-3-en-1-yl)(morpholino)methanone], the values for the IC50 on Cathepsin D (CatD) and on BACE2 were 52.6 µM and 1.56 µM, respectively.

With `CNC(=O)[C@]12C[C@H]1[C@@](C)(c1cc(/C=C(\F)c3ccc(C#CC(C)(C)C)cn3)ccc1F)N=C(N)S2` [Example 359, (1S,5S,6S)-3-amino-5-(5-((Z)-2-(5-(3,3-dimethylbut-1-yn-1-yl)pyridin-2-yl)-2-fluorovinyl)-2-fluorophenyl)-N,5-dimethyl-2-thia-4-azabicyclo[4.1.0]hept-3-ene-1-carboxamide], the figures for the IC50 on Cathepsin D (CatD) and at BACE2 were 26 µM and 0.794 µM, respectively.
